SMILES strings stand for the structures. pEC50: −log10 of the molar value. Read-outs that look alike come from different tables or passages of the source. Starred links: 1 amine or outer side, 2 acyl side, 3 side chain; linkers in the order of their positions; H or OH if unused. Non-standard residues stand in square brackets, D forms with d. Residues, ends and D or L forms follow the SMILES beside them. Groups on a side chain read outwards from the residue. *: point of attachment. C20 diacid = O=C(O)CCCCCCCCCCCCCCCCCCC(=O)*; C18 diacid = O=C(O)CCCCCCCCCCCCCCCCC(=O)*; γGlu = O=C(O)[C@H](CCC(=O)[*:2])N[*:1]; αMeF = C[C@](N)(Cc1ccccc1)C(=O)O; AEEA = NCCOCCOCC(=O)O; Aib = CC(C)(N)C(=O)O

The results in this text go back to patent US20250353891A1 (MEDIMMUNE LIMITED, priority 2022, published 2025).

The target in experiment [1] is human GLP-1 receptor (hGLP-1R) (Homo sapiens, UniProt P43220). The experiment in a line: cAMP production (HTRF) in CHO cells expressing hGLP-1R. In kind it is cell-based. Also on record: expressed in transfected cells. The note with it: for pEC50: geometric mean, read-out: hGLP-1R EC50; for % Relative Potency Ratio: % GLP-1R activity relative to GLP-1 / % GlucR activity relative to glucagon. An outline of the steps:
(§1)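 Cells were resuspended in assay buffer at batch-optimized density, typically 1×10^5 cells/mL for hGLP-1R and 2×10^5 cells/mL for hGCGR. After 30 min incubation at room temperature with compound, cAMP was measured by two-step HTRF. EC50 values came from 4-parameter logistic fits of % Delta F.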
A general note: Changes in cAMP serve as a functional read-out for many G protein-coupled receptors.

The target of experiment [2] is human glucagon receptor (hGCGR) (Homo sapiens, UniProt P47871). Put plainly: cAMP production (HTRF) in CHO cells expressing hGCGR. Also on record: expressed in transfected cells. Particulars: geometric mean, read-out: hGluc-R EC50. In kind it is cell-based. A digest of the protocol:
as §1

The mark [3] stands for this setting: Table 6, peptides modified at position 17, cAMP in CHO hGLP-1R cells.
[4] abbreviates: Table 6, peptides modified at position 17, cAMP in CHO hGCGR cells.
The mark [5] stands for this setting: Table 7, peptides modified at position 20, cAMP in CHO hGLP-1R cells.
[6] abbreviates: Table 7, peptides modified at position 20, cAMP in CHO hGCGR cells.

human glucagon receptor (hGCGR), sequence (P47871 26-477): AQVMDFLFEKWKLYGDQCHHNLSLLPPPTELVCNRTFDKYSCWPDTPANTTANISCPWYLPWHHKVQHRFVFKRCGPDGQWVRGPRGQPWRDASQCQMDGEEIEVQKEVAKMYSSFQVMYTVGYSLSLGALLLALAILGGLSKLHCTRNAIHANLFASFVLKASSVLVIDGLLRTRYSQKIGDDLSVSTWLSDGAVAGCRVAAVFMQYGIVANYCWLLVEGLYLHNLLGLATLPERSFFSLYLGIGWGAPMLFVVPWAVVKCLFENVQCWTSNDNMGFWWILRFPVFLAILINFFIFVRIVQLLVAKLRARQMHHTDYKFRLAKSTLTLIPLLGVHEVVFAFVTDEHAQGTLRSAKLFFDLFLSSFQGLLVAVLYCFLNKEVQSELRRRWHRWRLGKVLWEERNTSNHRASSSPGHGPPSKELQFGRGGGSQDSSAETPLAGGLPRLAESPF
human GLP-1 receptor (hGLP-1R), sequence (P43220 24-463): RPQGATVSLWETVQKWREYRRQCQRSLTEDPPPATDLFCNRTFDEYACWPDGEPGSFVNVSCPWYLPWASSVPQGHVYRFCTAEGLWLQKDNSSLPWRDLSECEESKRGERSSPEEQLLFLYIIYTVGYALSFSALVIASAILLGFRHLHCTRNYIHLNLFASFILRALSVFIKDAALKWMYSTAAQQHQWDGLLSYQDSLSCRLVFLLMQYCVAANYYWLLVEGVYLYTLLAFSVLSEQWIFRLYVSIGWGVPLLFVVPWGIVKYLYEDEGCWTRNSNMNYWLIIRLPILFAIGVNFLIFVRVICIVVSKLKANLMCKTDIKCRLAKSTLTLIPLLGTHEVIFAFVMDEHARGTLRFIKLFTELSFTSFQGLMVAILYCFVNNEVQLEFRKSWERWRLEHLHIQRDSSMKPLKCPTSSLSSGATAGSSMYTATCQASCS

As usually defined, the pEC50 is the negative decadic logarithm of the EC50, by convention in mol/L. Take `CC(C)C[C@H](NC(=O)[C@H](Cc1c[nH]c2ccccc12)NC(=O)[C@H](C)NC(=O)[C@@H](NC(=O)[C@H](Cc1ccccc1)NC(=O)[C@H](CC(=O)O)NC(=O)[C@H](CCCNC(=N)N)NC(=O)[C@H](C)NC(=O)[C@H](CCCNC(=N)N)NC(=O)[C@H](CCCCNC(=O)COCCOCCNC(=O)COCCOCCNC(=O)CC[C@H](NC(=O)CCCCCCCCCCCCCCCCCCC(=O)O)C(=O)O)NC(=O)[C@@H](NC(=O)[C@H](CC(=O)O)NC(=O)[C@H](CC(C)C)NC(=O)[C@](C)(Cc1ccccc1)NC(=O)[C@H](CCCCN)NC(=O)[C@H](CO)NC(=O)[C@@H](NC(=O)[C@H](CC(=O)O)NC(=O)[C@H](CO)NC(=O)[C@@H](NC(=O)[C@H](Cc1ccccc1)NC(=O)[C@@H](NC(=O)CNC(=O)[C@H](CCC(N)=O)NC(=O)C(C)(C)NC(=O)[C@@H](N)Cc1c[nH]cn1)[C@@H](C)O)[C@@H](C)O)C(C)C)[C@@H](C)O)C(C)C)C(=O)N[C@@H](CC(C)C)C(=O)N[C@@H](CCC(=O)O)C(=O)NC(C)(C)C(=O)NCC(=O)O` [Peptide 506] (H-H[Aib]QGTFTSDVSK[αMeF]LDTK([AEEA-AEEA-γGlu-C20 diacid])RARDFVAWLLE[Aib]G-OH; N-terminus assumed): the values for the pEC50 in experiment [1] (setting [3]) and in experiment [2] (setting [4]) were 9.79 and 9.83, respectively. The “% Relative Potency Ratio” value in experiment [1] (Table 6) was found to be 1.8.
For `CC[C@H](C)[C@H](NC(=O)[C@H](CO)NC(=O)[C@H](CCC(=O)O)NC(=O)[C@@H](NC(=O)[C@H](Cc1ccccc1)NC(=O)[C@H](CC(=O)O)NC(=O)[C@H](CCCCNC(=O)COCCOCCNC(=O)COCCOCCNC(=O)CC[C@H](NC(=O)CCCCCCCCCCCCCCCCC(=O)O)C(=O)O)NC(=O)[C@H](C)NC(=O)C(C)(C)NC(=O)[C@H](CCCNC(=N)N)NC(=O)[C@H](CO)NC(=O)[C@H](CC(=O)O)NC(=O)[C@H](CC(C)C)NC(=O)[C@](C)(Cc1ccccc1)NC(=O)[C@H](CCCCN)NC(=O)[C@H](CO)NC(=O)[C@@H](NC(=O)[C@H](CC(=O)O)NC(=O)[C@H](CO)NC(=O)[C@@H](NC(=O)[C@](C)(Cc1ccccc1)NC(=O)[C@H](CO)NC(=O)CNC(=O)[C@H](Cc1c[nH]cn1)NC(=O)C(C)(C)NC(=O)[C@@H](N)Cc1c[nH]cn1)[C@@H](C)O)C(C)C)C(C)C)C(=O)N[C@@H](C)C(=O)N[C@@H](CC(N)=O)C(=O)N[C@H](C(N)=O)[C@@H](C)O` [Peptide 251] (H-H[Aib]HGS[αMeF]TSDVSK[αMeF]LDSR[Aib]AK([AEEA-AEEA-γGlu-C18 diacid])DFVESIANT-NH2; N-terminus assumed), the pEC50 in experiment [1] (setting [5]) is 10.10; in experiment [2] (setting [6]) it was 9.61. Also, in experiment [1] (Table 7), the “% Relative Potency Ratio” value is given as 6.2.
Taken in the same sequence, the figures for `CC[C@H](C)[C@H](NC(=O)[C@H](Cc1c[nH]c2ccccc12)NC(=O)[C@H](CCC(=O)O)NC(=O)[C@@H](NC(=O)[C@H](Cc1ccccc1)NC(=O)[C@H](CC(=O)O)NC(=O)[C@H](CCCCNC(=O)COCCOCCNC(=O)COCCOCCNC(=O)CC[C@H](NC(=O)CC[C@H](NC(=O)CCCCCCCCCCCCCCCCC(=O)O)C(=O)O)C(=O)O)NC(=O)[C@H](C)NC(=O)[C@H](C)NC(=O)[C@H](CCC(N)=O)NC(=O)[C@H](CO)NC(=O)[C@H](CC(=O)O)NC(=O)[C@H](CC(C)C)NC(=O)[C@](C)(Cc1ccccc1)NC(=O)[C@H](CCCCN)NC(=O)[C@H](CO)NC(=O)[C@@H](NC(=O)[C@H](CC(=O)O)NC(=O)[C@H](CO)NC(=O)[C@@H](NC(=O)[C@](C)(Cc1ccccc1)NC(=O)[C@H](CO)NC(=O)CNC(=O)[C@H](Cc1c[nH]cn1)NC(=O)C(C)(C)NC(=O)[C@@H](N)Cc1c[nH]cn1)[C@@H](C)O)C(C)C)C(C)C)C(=O)N[C@@H](C)C(=O)N[C@@H](CC(N)=O)C(=O)N[C@H](C(N)=O)[C@@H](C)O` [Peptide 210] (H-H[Aib]HGS[αMeF]TSDVSK[αMeF]LDSQAAK([AEEA-AEEA-γGlu-γGlu-C18 diacid])DFVEWIANT-NH2) were 9.81, 10.03 and 1.2.
Taken in the same sequence, the figures for `CC[C@H](C)[C@H](NC(=O)C(C)(C)NC(=O)[C@H](CCC(N)=O)NC(=O)[C@@H](NC(=O)[C@](C)(Cc1ccccc1)NC(=O)[C@H](CC(=O)O)NC(=O)[C@H](CCCCNC(=O)COCCOCCNC(=O)COCCOCCNC(=O)CCCCCCCCCCCCCCCCC(=O)O)NC(=O)[C@H](C)NC(=O)[C@H](C)NC(=O)[C@H](CCCNC(=N)N)NC(=O)[C@H](CO)NC(=O)[C@H](CC(=O)O)NC(=O)[C@H](CC(C)C)NC(=O)[C@](C)(Cc1ccccc1)NC(=O)[C@H](CCCCN)NC(=O)[C@H](CO)NC(=O)[C@@H](NC(=O)[C@H](CC(=O)O)NC(=O)[C@H](CO)NC(=O)[C@@H](NC(=O)[C@](C)(Cc1ccccc1)NC(=O)[C@H](CO)NC(=O)CNC(=O)[C@H](Cc1c[nH]cn1)NC(=O)C(C)(C)NC(=O)[C@@H](N)Cc1c[nH]cn1)[C@@H](C)O)C(C)C)C(C)C)C(=O)N[C@@H](C)C(=O)N[C@@H](CC(N)=O)C(=O)N[C@H](C(N)=O)[C@@H](C)O` [Peptide 272] (H-H[Aib]HGS[αMeF]TSDVSK[αMeF]LDSRAAK([AEEA-AEEA-C18 diacid])D[αMeF]VQ[Aib]IANT-NH2) were 10.81, 10.84 and 1.8.
On to `CC(C)C[C@H](NC(=O)[C@H](Cc1c[nH]c2ccccc12)NC(=O)[C@H](CCCNC(=N)N)NC(=O)[C@@H](NC(=O)[C@H](Cc1ccccc1)NC(=O)[C@H](CC(=O)O)NC(=O)[C@H](CCC(N)=O)NC(=O)[C@H](C)NC(=O)[C@H](CCCNC(=N)N)NC(=O)[C@H](CCCCNC(=O)COCCOCCNC(=O)COCCOCCNC(=O)CC[C@H](NC(=O)CCCCCCCCCCCCCCCCC(=O)O)C(=O)O)NC(=O)[C@H](CO)NC(=O)[C@H](CC(=O)O)NC(=O)[C@H](CC(C)C)NC(=O)[C@](C)(Cc1ccccc1)NC(=O)[C@H](CCCCN)NC(=O)[C@H](CO)NC(=O)[C@@H](NC(=O)[C@H](CC(=O)O)NC(=O)[C@H](CO)NC(=O)[C@@H](NC(=O)[C@H](Cc1ccccc1)NC(=O)[C@@H](NC(=O)CNC(=O)[C@H](CCC(N)=O)NC(=O)C(C)(C)NC(=O)[C@@H](N)Cc1c[nH]cn1)[C@@H](C)O)[C@@H](C)O)C(C)C)C(C)C)C(=O)N[C@@H](CC(C)C)C(=O)NC(C)(C)C(=O)N[C@@H](CCC(=O)O)C(=O)O` [Peptide 152] (H-H[Aib]QGTFTSDVSK[αMeF]LDSK([AEEA-AEEA-γGlu-C18 diacid])RAQDFVRWLL[Aib]E-OH; N-terminus assumed), for which the results for the pEC50 in experiment [1] (setting [3]) and in experiment [2] (setting [4]) were 10.92 and 10.69, respectively. Besides, the “% Relative Potency Ratio” value in experiment [1] (Table 6) is given as 3.4.
With `CC[C@H](C)[C@H](NC(=O)[C@H](Cc1c[nH]c2ccccc12)NC(=O)[C@H](CCC(=O)O)NC(=O)[C@@H](NC(=O)[C@H](Cc1ccccc1)NC(=O)[C@H](CC(=O)O)NC(=O)[C@H](CCCCNC(=O)COCCOCCNC(=O)COCCOCCNC(=O)CC[C@H](NC(=O)CC[C@H](NC(=O)CCCCCCCCCCCCCCCCCCC(=O)O)C(=O)O)C(=O)O)NC(=O)[C@H](C)NC(=O)[C@H](C)NC(=O)[C@H](CCCNC(=N)N)NC(=O)[C@H](CO)NC(=O)[C@H](CC(=O)O)NC(=O)[C@H](CC(C)C)NC(=O)[C@](C)(Cc1ccccc1)NC(=O)[C@H](CCCCN)NC(=O)[C@H](CO)NC(=O)[C@@H](NC(=O)[C@H](CC(=O)O)NC(=O)[C@H](CO)NC(=O)[C@@H](NC(=O)[C@](C)(Cc1ccccc1)NC(=O)[C@H](CO)NC(=O)CNC(=O)[C@H](Cc1c[nH]cn1)NC(=O)C(C)(C)NC(=O)[C@@H](N)Cc1c[nH]cn1)[C@@H](C)O)C(C)C)C(C)C)C(=O)N[C@@H](C)C(=O)N[C@@H](CC(N)=O)C(=O)N[C@H](C(N)=O)[C@@H](C)O` [Peptide 213] (H-H[Aib]HGS[αMeF]TSDVSK[αMeF]LDSRAAK([AEEA-AEEA-γGlu-γGlu-C20 diacid])DFVEWIANT-NH2; N-terminus assumed), the pEC50 is 9.27 in experiment [1] (setting [5]) and 9.85 in experiment [2] (setting [6]). Also, the “% Relative Potency Ratio” value in experiment [1] (Table 7) is recorded as 0.5.
Take `CC[C@H](C)[C@H](NC(=O)[C@H](Cc1c[nH]c2ccccc12)NC(=O)[C@H](CCCCNC(=O)COCCOCCNC(=O)COCCOCCNC(=O)CC[C@H](NC(=O)CC[C@H](NC(=O)CCCCCCCCCCCCCCCCCCC(=O)O)C(=O)O)C(=O)O)NC(=O)[C@@H](NC(=O)[C@](C)(Cc1ccccc1)NC(=O)[C@H](CC(=O)O)NC(=O)[C@H](CCC(N)=O)NC(=O)[C@H](C)NC(=O)[C@H](C)NC(=O)[C@H](CCCNC(=N)N)NC(=O)[C@H](CO)NC(=O)[C@H](CC(=O)O)NC(=O)[C@H](CC(C)C)NC(=O)[C@](C)(Cc1ccccc1)NC(=O)[C@H](CCCCN)NC(=O)[C@H](CO)NC(=O)[C@@H](NC(=O)[C@H](CC(=O)O)NC(=O)[C@H](CO)NC(=O)[C@@H](NC(=O)[C@](C)(Cc1ccccc1)NC(=O)[C@H](CO)NC(=O)CNC(=O)[C@H](Cc1c[nH]cn1)NC(=O)C(C)(C)NC(=O)[C@@H](N)Cc1c[nH]cn1)[C@@H](C)O)C(C)C)C(C)C)C(=O)N[C@@H](C)C(=O)N[C@@H](CC(N)=O)C(=O)N[C@H](C(N)=O)[C@@H](C)O` [Peptide 374] (H-H[Aib]HGS[αMeF]TSDVSK[αMeF]LDSRAAQD[αMeF]VK([AEEA-AEEA-γGlu-γGlu-C20 diacid])WIANT-NH2; N-terminus assumed): the “% Relative Potency Ratio” value in experiment [1] amounted to 1.2. In addition, the negative-log EC50 (pEC50) in experiment [1] (cAMP, CHO cells, 0.1% BSA) is 9.36; in experiment [2] (cAMP, CHO cells, 0.1% BSA), 9.58.
